{"source": "patent US10434067B2", "about": "“Composite formulation for oral administration comprising ezetimibe and rosuvastatin” (HANMI PHARM. CO., LTD., priority 2013, dated 2019)", "test": "Forced degradation test of ezetimibe", "type": "physicochemical", "settings": "for Amount of ezetimibe (%): 2 hours", "procedure": "The main ingredient, ezetimibe was precisely weighed to about 100 mg and put in a 200 mL volumetric flask. Then, about 20 mL of 90% (v/v) acetonitrile (ACN) was added thereto, and then, completely dissolved by performing ultrasonic extraction for about 10 minutes. Next, the resultant mixture was subjected to a forced degradation test according to each condition using control, oxidation, a strong base, strong acid, and heat as described below.\n1) Control: About 10 mL of distilled water was added to the mixture, and the mixture was left in an oven at a temperature of about 60° C. for about 2 hours to proceed a reaction, cooled down to room temperature, and 10 mL of distilled water was dropped thereto.\n2) Oxidation: About 10 mL of a 0.5% (v/v) hydrogen peroxide solution was added to the mixture, and the mixture was left in an oven at a temperature of about 60° C. for about 2 hours to proceed a reaction, cooled down to room temperature, and 10 mL of distilled water was dropped thereto.\n3) Strong base: About 10 mL of 0.1N NaOH was added to the mixture, and the mixture was left in an oven at a temperature of about 60° C. for about 2 hours to proceed a reaction, cooled down to room temperature, and t 10 mL of 0.1N HCl was dropped thereto (neutralization).\n4) Strong acid: About 10 mL of 0.1N HCl was added to the mixture, and the mixture was left in an oven at a temperature of about 60° C. for about 2 hours to proceed a reaction, cooled down to room temperature, and about 10 mL of 0.1N NaOH 10 mL was dropped thereto (neutralization).\n5) Heat: About 10 mL of distilled water was added to the mixture, and the mixture was left in an oven at a temperature of about 105° C. for about 2 hours to proceed a reaction, cooled down to room temperature, and about 10 mL of distilled water was dropped thereto.\nThen, each of the samples obtained from the degradation test was cooled down to room temperature, and an extract solvent (i.e., a mixed solution of about 0.1 ml of 85% phosphate solution and about 1,000 ml of acetonitrile) was added thereto for each condition above, thereby preparing a test liquid in an amount of 200 mL. Then, the test liquid was analyzed by ‘HPLC’ according to General Tests as set forth in the Korean Pharmacopoeia and calculated according to a ‘quantitation testing method’ and an ‘related compound testing method’, and the amounts of ezetimibe and its main degradation products having […] relative retention time (RRT) were calculated as shown in Table 9 below and FIG. 1.\nIn addition, the amounts of related compounds of each of the test liquids were calculated, and then, analyzed in connection with an RRT for respective test liquids."}
{"compound": "O=C1[C@H](CC[C@H](O)c2ccc(F)cc2)[C@@H](c2ccc(O)cc2)N1c1ccc(F)cc1", "note": "[ezetimibe]", "values": [{"measurement": "Total % of related compounds in test liquid", "setting": "Control", "value": 0.63, "unit": "%"}, {"measurement": "related compound at relative retention time 0.15", "setting": "Control", "value": "− (Less than 0.05%)"}, {"measurement": "related compound at relative retention time 0.18", "setting": "Control", "value": "++ (0.10% or greater and less than 0.20%)"}, {"measurement": "related compound at relative retention time 0.26", "setting": "Control", "value": "− (Less than 0.05%)"}, {"measurement": "related compound at relative retention time 0.47", "setting": "Control", "value": "+++ (0.20% or greater and less than 0.50%)"}, {"measurement": "related compound at relative retention time 0.54", "setting": "Control", "value": "− (Less than 0.05%)"}, {"measurement": "related compound at relative retention time 0.64", "setting": "Control", "value": "− (Less than 0.05%)"}, {"measurement": "related compound at relative retention time 0.67", "setting": "Control", "value": "− (Less than 0.05%)"}, {"measurement": "related compound at relative retention time 0.74", "setting": "Control", "value": "− (Less than 0.05%)"}, {"measurement": "related compound at relative retention time 1.11", "setting": "Control", "value": "− (Less than 0.05%)"}, {"measurement": "related compound at relative retention time 1.18", "setting": "Control", "value": "− (Less than 0.05%)"}, {"measurement": "related compound at relative retention time 1.37", "setting": "Control", "value": "++ (0.10% or greater and less than 0.20%)"}, {"measurement": "Amount of ezetimibe (%)", "setting": "Control: distilled water, 60° C.", "value": 57.90, "unit": "%"}, {"measurement": "Total % of related compounds in test liquid", "setting": "Heat", "value": 1.97, "unit": "%"}, {"measurement": "related compound at relative retention time 0.15", "setting": "Heat", "value": "− (Less than 0.05%)"}, {"measurement": "related compound at relative retention time 0.18", "setting": "Heat", "value": "++ (0.10% or greater and less than 0.20%)"}, {"measurement": "related compound at relative retention time 0.26", "setting": "Heat", "value": "− (Less than 0.05%)"}, {"measurement": "related compound at relative retention time 0.47", "setting": "Heat", "value": "++++ (0.50% or greater and less than 1.0%)"}, {"measurement": "related compound at relative retention time 0.54", "setting": "Heat", "value": "− (Less than 0.05%)"}, {"measurement": "related compound at relative retention time 0.64", "setting": "Heat", "value": "− (Less than 0.05%)"}, {"measurement": "related compound at relative retention time 0.67", "setting": "Heat", "value": "− (Less than 0.05%)"}, {"measurement": "related compound at relative retention time 0.74", "setting": "Heat", "value": "− (Less than 0.05%)"}, {"measurement": "related compound at relative retention time 1.11", "setting": "Heat", "value": "− (Less than 0.05%)"}, {"measurement": "related compound at relative retention time 1.18", "setting": "Heat", "value": "+ (0.05% or greater and less than 0.10%)"}, {"measurement": "related compound at relative retention time 1.37", "setting": "Heat", "value": "++++ (0.50% or greater and less than 1.0%)"}, {"measurement": "Amount of ezetimibe (%)", "setting": "Heat: distilled water, 105° C.", "value": 0.21, "unit": "%"}, {"measurement": "Total % of related compounds in test liquid", "setting": "Oxidation", "value": 0.61, "unit": "%"}, {"measurement": "related compound at relative retention time 0.15", "setting": "Oxidation", "value": "− (Less than 0.05%)"}, {"measurement": "related compound at relative retention time 0.18", "setting": "Oxidation", "value": "++ (0.10% or greater and less than 0.20%)"}, {"measurement": "related compound at relative retention time 0.26", "setting": "Oxidation", "value": "− (Less than 0.05%)"}, {"measurement": "related compound at relative retention time 0.47", "setting": "Oxidation", "value": "+++ (0.20% or greater and less than 0.50%)"}, {"measurement": "related compound at relative retention time 0.54", "setting": "Oxidation", "value": "− (Less than 0.05%)"}, {"measurement": "related compound at relative retention time 0.64", "setting": "Oxidation", "value": "− (Less than 0.05%)"}, {"measurement": "related compound at relative retention time 0.67", "setting": "Oxidation", "value": "− (Less than 0.05%)"}, {"measurement": "related compound at relative retention time 0.74", "setting": "Oxidation", "value": "− (Less than 0.05%)"}, {"measurement": "related compound at relative retention time 1.11", "setting": "Oxidation", "value": "− (Less than 0.05%)"}, {"measurement": "related compound at relative retention time 1.18", "setting": "Oxidation", "value": "− (Less than 0.05%)"}, {"measurement": "related compound at relative retention time 1.37", "setting": "Oxidation", "value": "++ (0.10% or greater and less than 0.20%)"}, {"measurement": "Amount of ezetimibe (%)", "setting": "Oxidation: 0.5% hydrogen peroxide, 60° C.", "value": 61.06, "unit": "%"}, {"measurement": "Total % of related compounds in test liquid", "setting": "Strong acid", "value": 0.45, "unit": "%"}, {"measurement": "related compound at relative retention time 0.15", "setting": "Strong acid", "value": "+ (0.05% or greater and less than 0.10%)"}, {"measurement": "related compound at relative retention time 0.18", "setting": "Strong acid", "value": "++ (0.10% or greater and less than 0.20%)"}, {"measurement": "related compound at relative retention time 0.26", "setting": "Strong acid", "value": "++ (0.10% or greater and less than 0.20%)"}, {"measurement": "related compound at relative retention time 0.47", "setting": "Strong acid", "value": "− (Less than 0.05%)"}, {"measurement": "related compound at relative retention time 0.54", "setting": "Strong acid", "value": "− (Less than 0.05%)"}, {"measurement": "related compound at relative retention time 0.64", "setting": "Strong acid", "value": "− (Less than 0.05%)"}, {"measurement": "related compound at relative retention time 0.67", "setting": "Strong acid", "value": "− (Less than 0.05%)"}, {"measurement": "related compound at relative retention time 0.74", "setting": "Strong acid", "value": "− (Less than 0.05%)"}, {"measurement": "related compound at relative retention time 1.11", "setting": "Strong acid", "value": "− (Less than 0.05%)"}, {"measurement": "related compound at relative retention time 1.18", "setting": "Strong acid", "value": "− (Less than 0.05%)"}, {"measurement": "related compound at relative retention time 1.37", "setting": "Strong acid", "value": "− (Less than 0.05%)"}, {"measurement": "Amount of ezetimibe (%)", "setting": "Strong acid: 0.1N HCl, 60° C.", "value": 100.31, "unit": "%"}, {"measurement": "Total % of related compounds in test liquid", "setting": "Strong base", "value": 21.48, "unit": "%"}, {"measurement": "related compound at relative retention time 0.15", "setting": "Strong base", "value": "+ (0.05% or greater and less than 0.10%)"}, {"measurement": "related compound at relative retention time 0.18", "setting": "Strong base", "value": "+++++ (1.0% or greater)"}, {"measurement": "related compound at relative retention time 0.26", "setting": "Strong base", "value": "+ (0.05% or greater and less than 0.10%)"}, {"measurement": "related compound at relative retention time 0.47", "setting": "Strong base", "value": "+++ (0.20% or greater and less than 0.50%)"}, {"measurement": "related compound at relative retention time 0.54", "setting": "Strong base", "value": "+++++ (1.0% or greater)"}, {"measurement": "related compound at relative retention time 0.64", "setting": "Strong base", "value": "+++ (0.20% or greater and less than 0.50%)"}, {"measurement": "related compound at relative retention time 0.67", "setting": "Strong base", "value": "++ (0.10% or greater and less than 0.20%)"}, {"measurement": "related compound at relative retention time 0.74", "setting": "Strong base", "value": "+ (0.05% or greater and less than 0.10%)"}, {"measurement": "related compound at relative retention time 1.11", "setting": "Strong base", "value": "+ (0.05% or greater and less than 0.10%)"}, {"measurement": "related compound at relative retention time 1.18", "setting": "Strong base", "value": "++ (0.10% or greater and less than 0.20%)"}, {"measurement": "related compound at relative retention time 1.37", "setting": "Strong base", "value": "+++++ (1.0% or greater)"}, {"measurement": "Amount of ezetimibe (%)", "setting": "Strong base: 0.1N NaOH, 60° C.", "value": 1.56, "unit": "%"}, {"measurement": "stability of ezetimibe (in words)", "setting": "in a basic environment", "value": "unstable"}, {"measurement": "stability of ezetimibe (in words)", "setting": "under an acidic condition", "value": "stable"}]}
